# According to patent US20240269139A1, “COMPOUNDS FOR TARGETED PROTEIN DEGRADATION OF KINASES” (DANA-FARBER CANCER INSTITUTE, INC., priority 2020, published 2024):
# Values joined by “and” are separate entries in the source; they are usually repeats but may differ in a detail not shown here. Equal entries are not always repeated. Where two headings read alike, the source gives them in different places.
# Legend:
# Assay type in all cases: cell-based
# [1] = target: T1, protein kinases (human kinome) (Homo sapiens, UniProt Q53H12); settings: Experiment wp071; direction down
# T1 sequence (Q53H12 1-422): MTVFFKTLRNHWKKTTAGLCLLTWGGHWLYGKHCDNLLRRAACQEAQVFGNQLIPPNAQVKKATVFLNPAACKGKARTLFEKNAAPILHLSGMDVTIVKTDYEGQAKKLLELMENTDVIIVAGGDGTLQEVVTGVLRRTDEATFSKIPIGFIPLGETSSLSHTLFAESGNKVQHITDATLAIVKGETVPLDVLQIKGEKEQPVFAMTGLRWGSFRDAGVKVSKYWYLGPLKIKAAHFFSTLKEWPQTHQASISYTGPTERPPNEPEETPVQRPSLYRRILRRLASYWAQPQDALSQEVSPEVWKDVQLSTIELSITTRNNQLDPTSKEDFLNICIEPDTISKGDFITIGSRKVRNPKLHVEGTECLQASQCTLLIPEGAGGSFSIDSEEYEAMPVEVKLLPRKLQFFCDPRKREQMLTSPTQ
# [2] = target: protein kinases (human kinome) (Homo sapiens, UniProt Q14289); settings: for logFC: PTK2B (Q14289-1) protein abundance, degrader vs DMSO, down; for logFC PTK2B: accession Q14289-1, direction of change down
# [3] = target: protein kinases (human kinome) (Homo sapiens, UniProt P50613); settings: for logFC CDK7: CDK7 P50613; for logFC: CDK7 (P50613) protein abundance, degrader vs DMSO, down
# [4] = target: protein kinases (human kinome) (Homo sapiens, UniProt Q00537); settings: for logFC of CDK17: Accession Q00537; for logFC CDK17 (Q00537): direction of change down
# [5] = target: protein kinases (human kinome) (Homo sapiens, UniProt O43683); settings: for logFC: BUB1 (O43683); for logFC BUB1 (O43683): direction down
# [6] = target: T2, protein kinases (human kinome) (Homo sapiens, UniProt Q9UEE5); settings: STK17A Q9UEE5
# T2 sequence (Q9UEE5 1-414): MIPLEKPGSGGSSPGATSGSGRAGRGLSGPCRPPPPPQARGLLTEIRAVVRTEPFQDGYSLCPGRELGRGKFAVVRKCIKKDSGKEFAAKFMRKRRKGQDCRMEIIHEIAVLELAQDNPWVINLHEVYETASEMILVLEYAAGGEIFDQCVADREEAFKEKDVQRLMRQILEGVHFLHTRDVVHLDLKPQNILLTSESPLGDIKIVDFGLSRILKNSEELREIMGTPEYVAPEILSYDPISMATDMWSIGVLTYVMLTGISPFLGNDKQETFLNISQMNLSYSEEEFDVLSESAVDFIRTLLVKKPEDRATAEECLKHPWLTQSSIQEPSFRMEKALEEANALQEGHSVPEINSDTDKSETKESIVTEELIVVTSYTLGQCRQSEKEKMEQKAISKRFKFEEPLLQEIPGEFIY
# [7] = target: protein kinases (human kinome) (Homo sapiens, UniProt Q9NYV4)
# [8] = target: protein kinases (human kinome) (Homo sapiens, UniProt Q14004); settings: for logFC CDK13: Accession Q14004-1; for logFC: CDK13 (Q14004-1)
# [9] = target: protein kinases (human kinome) (Homo sapiens, UniProt Q15119); settings: experiment wp137
# [10] = Accession Q9NYV4-1, experiment wp016
# [11] = CDK12 (Q9NYV4-1), experiment wp016
# Sequence of protein kinases (human kinome) (Homo sapiens, UniProt Q9NYV4) (Q9NYV4 whole entry): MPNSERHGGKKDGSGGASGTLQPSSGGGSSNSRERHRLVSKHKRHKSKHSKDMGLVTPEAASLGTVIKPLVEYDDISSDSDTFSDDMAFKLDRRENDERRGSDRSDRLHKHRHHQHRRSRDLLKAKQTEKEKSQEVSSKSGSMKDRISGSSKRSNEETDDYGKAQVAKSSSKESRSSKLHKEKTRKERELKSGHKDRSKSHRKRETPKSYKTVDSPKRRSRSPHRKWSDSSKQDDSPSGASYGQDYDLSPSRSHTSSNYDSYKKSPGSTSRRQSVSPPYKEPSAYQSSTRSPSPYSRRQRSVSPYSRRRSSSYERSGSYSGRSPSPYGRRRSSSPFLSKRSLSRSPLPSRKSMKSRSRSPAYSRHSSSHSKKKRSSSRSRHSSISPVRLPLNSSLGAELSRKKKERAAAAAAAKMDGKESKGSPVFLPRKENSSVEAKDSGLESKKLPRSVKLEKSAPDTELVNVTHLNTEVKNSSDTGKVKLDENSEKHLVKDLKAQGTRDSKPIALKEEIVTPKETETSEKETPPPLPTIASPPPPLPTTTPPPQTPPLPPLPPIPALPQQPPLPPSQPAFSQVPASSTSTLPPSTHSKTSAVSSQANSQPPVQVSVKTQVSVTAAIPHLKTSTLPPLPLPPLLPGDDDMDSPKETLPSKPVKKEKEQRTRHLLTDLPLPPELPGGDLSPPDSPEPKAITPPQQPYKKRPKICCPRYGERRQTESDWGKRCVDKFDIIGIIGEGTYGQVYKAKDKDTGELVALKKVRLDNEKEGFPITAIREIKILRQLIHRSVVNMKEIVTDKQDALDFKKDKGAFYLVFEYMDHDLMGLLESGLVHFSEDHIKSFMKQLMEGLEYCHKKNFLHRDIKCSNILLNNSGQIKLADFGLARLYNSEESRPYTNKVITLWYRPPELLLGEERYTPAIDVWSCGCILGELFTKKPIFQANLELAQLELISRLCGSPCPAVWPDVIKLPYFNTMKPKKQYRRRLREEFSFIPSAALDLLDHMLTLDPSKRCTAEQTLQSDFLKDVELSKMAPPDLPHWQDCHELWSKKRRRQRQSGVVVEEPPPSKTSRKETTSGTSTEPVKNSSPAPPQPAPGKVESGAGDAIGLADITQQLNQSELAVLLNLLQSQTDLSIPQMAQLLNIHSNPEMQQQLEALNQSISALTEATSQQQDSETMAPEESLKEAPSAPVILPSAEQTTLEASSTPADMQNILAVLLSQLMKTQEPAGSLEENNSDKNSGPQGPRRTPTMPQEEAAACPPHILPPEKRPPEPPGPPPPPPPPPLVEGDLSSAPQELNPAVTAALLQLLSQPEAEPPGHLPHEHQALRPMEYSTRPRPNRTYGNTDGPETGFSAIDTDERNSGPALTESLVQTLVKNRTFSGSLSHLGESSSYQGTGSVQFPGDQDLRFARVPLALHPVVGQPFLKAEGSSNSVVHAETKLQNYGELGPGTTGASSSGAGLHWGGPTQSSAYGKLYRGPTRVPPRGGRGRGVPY
# Sequence of protein kinases (human kinome) (Homo sapiens, UniProt Q14289) (Q14289 whole entry): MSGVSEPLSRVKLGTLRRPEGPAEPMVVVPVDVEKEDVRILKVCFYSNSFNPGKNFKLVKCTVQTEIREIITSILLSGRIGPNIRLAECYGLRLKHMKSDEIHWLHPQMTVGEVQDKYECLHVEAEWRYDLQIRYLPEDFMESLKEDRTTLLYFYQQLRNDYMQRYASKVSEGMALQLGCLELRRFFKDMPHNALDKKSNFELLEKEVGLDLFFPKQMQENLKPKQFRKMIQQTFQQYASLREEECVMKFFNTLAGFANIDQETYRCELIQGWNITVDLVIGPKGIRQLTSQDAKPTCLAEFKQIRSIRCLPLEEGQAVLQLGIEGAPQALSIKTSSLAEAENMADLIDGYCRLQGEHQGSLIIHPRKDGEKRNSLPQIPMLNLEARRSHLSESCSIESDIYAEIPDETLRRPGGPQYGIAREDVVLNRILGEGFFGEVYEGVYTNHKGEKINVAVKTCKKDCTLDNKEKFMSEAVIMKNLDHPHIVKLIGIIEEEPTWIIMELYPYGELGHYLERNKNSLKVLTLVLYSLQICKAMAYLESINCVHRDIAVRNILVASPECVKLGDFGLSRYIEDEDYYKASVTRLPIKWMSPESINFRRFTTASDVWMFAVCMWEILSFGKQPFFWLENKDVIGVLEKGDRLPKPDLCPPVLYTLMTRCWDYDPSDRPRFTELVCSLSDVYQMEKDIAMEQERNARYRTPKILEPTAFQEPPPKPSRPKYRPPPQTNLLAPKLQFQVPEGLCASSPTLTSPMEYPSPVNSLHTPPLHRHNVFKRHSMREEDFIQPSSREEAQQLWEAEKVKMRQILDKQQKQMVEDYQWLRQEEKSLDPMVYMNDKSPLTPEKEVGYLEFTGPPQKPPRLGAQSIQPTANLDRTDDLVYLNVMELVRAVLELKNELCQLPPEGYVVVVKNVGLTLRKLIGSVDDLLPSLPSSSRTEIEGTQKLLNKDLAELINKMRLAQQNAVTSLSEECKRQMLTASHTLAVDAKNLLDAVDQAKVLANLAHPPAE
# Sequence of protein kinases (human kinome) (Homo sapiens, UniProt Q14004) (Q14004 whole entry): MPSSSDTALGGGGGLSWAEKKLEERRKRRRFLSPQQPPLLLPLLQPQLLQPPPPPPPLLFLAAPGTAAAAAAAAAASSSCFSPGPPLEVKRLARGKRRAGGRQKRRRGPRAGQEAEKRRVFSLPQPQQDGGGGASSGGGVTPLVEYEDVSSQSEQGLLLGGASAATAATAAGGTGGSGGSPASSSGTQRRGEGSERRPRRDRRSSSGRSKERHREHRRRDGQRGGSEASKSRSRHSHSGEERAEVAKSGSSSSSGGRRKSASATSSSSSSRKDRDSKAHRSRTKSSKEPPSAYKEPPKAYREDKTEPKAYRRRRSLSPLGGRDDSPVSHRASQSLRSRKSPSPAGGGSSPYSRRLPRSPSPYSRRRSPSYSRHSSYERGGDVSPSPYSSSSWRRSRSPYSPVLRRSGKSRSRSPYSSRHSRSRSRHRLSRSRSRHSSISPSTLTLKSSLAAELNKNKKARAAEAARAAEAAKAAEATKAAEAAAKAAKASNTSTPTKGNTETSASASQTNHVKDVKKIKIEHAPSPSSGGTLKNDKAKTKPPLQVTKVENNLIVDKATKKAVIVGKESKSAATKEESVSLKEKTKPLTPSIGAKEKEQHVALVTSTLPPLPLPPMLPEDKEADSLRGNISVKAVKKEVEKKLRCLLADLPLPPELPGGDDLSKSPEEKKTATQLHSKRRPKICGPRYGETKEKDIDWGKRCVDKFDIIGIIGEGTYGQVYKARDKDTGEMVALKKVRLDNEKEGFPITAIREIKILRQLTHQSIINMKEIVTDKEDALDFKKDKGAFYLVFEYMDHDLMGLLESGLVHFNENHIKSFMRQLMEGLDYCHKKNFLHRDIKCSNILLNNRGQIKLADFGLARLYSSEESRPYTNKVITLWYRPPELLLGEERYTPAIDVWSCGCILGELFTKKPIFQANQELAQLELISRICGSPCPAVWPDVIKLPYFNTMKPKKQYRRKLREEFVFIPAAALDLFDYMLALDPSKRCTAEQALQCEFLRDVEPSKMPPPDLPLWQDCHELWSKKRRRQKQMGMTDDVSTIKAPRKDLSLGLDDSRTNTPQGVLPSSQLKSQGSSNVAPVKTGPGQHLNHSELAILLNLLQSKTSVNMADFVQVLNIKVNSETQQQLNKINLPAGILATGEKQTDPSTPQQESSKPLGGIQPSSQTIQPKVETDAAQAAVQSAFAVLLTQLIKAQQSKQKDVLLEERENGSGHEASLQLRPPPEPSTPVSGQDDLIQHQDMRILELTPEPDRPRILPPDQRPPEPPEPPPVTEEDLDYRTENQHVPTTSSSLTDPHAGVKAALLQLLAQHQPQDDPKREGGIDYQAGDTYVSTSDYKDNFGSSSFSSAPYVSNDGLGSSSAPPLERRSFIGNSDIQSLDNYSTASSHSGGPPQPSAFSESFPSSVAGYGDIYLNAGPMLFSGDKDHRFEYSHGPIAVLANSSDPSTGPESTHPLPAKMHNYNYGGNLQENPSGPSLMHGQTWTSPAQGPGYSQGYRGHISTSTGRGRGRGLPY
# Sequence of protein kinases (human kinome) (Homo sapiens, UniProt O43683) (O43683 whole entry): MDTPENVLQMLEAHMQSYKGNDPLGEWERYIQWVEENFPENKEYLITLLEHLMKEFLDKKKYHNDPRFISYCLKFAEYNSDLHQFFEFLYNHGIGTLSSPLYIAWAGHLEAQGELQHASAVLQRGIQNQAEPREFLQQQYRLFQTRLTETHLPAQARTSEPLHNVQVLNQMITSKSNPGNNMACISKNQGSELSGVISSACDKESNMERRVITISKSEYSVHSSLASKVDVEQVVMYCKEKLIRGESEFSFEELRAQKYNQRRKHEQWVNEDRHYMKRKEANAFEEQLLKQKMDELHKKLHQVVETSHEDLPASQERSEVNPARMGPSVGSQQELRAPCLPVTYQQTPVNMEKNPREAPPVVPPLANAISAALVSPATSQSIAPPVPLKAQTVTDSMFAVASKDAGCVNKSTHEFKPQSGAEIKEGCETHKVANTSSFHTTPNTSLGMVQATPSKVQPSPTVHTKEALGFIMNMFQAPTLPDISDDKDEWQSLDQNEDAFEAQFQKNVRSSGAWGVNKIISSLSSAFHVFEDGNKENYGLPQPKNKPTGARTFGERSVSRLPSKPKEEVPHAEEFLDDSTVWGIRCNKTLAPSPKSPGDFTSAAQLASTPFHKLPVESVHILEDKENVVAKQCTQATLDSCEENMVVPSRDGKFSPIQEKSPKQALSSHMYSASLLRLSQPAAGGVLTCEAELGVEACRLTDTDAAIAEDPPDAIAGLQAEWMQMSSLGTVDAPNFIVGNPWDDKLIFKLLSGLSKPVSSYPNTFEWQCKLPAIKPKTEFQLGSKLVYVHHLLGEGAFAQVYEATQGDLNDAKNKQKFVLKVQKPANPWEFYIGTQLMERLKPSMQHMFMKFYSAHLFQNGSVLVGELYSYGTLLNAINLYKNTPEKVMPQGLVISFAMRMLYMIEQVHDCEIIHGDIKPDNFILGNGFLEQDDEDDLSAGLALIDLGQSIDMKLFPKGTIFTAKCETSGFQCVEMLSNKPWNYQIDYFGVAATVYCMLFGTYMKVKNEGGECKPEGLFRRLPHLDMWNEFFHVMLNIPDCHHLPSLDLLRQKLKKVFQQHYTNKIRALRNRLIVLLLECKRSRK
smiles,measurement,setting,value
Cc1cnc(Nc2ccc(N3CCN(CCOCCOCCNC(=O)COc4cccc5c4C(=O)N(C4CCC(=O)NC4=O)C5=O)CC3)cc2)nc1Nc1cccc(S(=O)(=O)NC(C)(C)C)c1 (centres unmarked) [JWG.118],logFC AGK (Q53H12),[1],−0.5599
Nc1ncnc2c1c(-c1ccc(Oc3ccccc3)cc1)nn2[C@H]1CC[C@H](N2CCN(CCOCCNC(=O)CNc3cccc4c3C(=O)N(C3CCC(=O)NC3=O)C4=O)CC2)CC1 (some centres unmarked) [SB1.G.181],logFC AGK (Q53H12),[1],−0.3991
CC(C)S(=O)(=O)c1ccccc1Nc1nc(Nc2ccc(N3CCN(CCOCCNC(=O)CNc4cccc5c4C(=O)N(C4CCC(=O)NC4=O)C5=O)CC3)cc2)ncc1Cl (centres unmarked) [SK.3.91],logFC,[2]; 1 uM,−3.603
same,logFC,[2]; 1 hr,−0.8056 and −1.043
same,logFC,[2]; 2 hr,−2.027 and −2.105
same,logFC PTK2B,"[2]; experiment wp016, 1 uM",−3.603
same,logFC PTK2B,[2]; experiment wp016,−3.824
same,logFC PTK2B,[2]; experiment wp114,−1.885
same,logFC PTK2B,"[2]; experiment wp133, 1 hr",−0.8056
same,logFC PTK2B,"[2]; experiment wp133, 2 hr",−2.027
same,logFC PTK2B,"[2]; experiment wp133, 4 hr",−3.96
same,logFC PTK2B,"[2]; experiment wp160, 1 hr",−1.043
same,logFC PTK2B,"[2]; experiment wp160, 2 hr",−2.105
same,logFC PTK2B,"[2]; experiment wp160, 4 hr",−2.773
same,logFC CDK7,[3]; experiment wp016,−0.5236
same,logFC CDK7,[3]; experiment wp105,−0.6307
same,logFC CDK7,[3]; experiment wp107,−0.4632
same,logFC CDK7,[3]; experiment wp114,−0.5255
same,logFC CDK7,[3]; experiment wp172,−1.186
same,logFC of CDK17,[4]; experiment wp016,−0.7341
same,logFC of CDK17,"[4]; experiment wp016, 1 uM",−0.7503
same,logFC of CDK17,[4]; experiment wp103,−0.6015
same,logFC of CDK17,[4]; experiment wp105,−0.732
same,logFC of CDK17,[4]; experiment wp107,−0.6145
same,logFC of CDK17,"[4]; experiment wp133, 2 hr",−0.372
same,logFC of CDK17,"[4]; experiment wp133, 4 hr",−0.611
same,logFC of CDK17,"[4]; experiment wp160, 4 hr",−0.3952
same,logFC of CDK17,[4]; experiment wp172,−0.7492
same,logFC CDK17 (Q00537),[4]; Experiment wp105,−0.732
same,logFC CDK17 (Q00537),"[4]; experiment wp016, 1 uM",−0.7503
same,logFC CDK17 (Q00537),[4]; experiment wp016,−0.7341
same,logFC CDK17 (Q00537),[4]; experiment wp103,−0.6015
same,logFC CDK17 (Q00537),[4]; experiment wp107,−0.6145
same,logFC CDK17 (Q00537),"[4]; experiment wp133, 2 hr",−0.372
same,logFC CDK17 (Q00537),"[4]; experiment wp133, 4 hr",−0.611
same,logFC CDK17 (Q00537),"[4]; experiment wp160, 4 hr",−0.3952
same,logFC CDK17 (Q00537),[4]; experiment wp172,−0.7492
same,logFC,"[5]; experiment wp133, 1 hr",−0.4907
same,logFC,"[5]; experiment wp133, 2 hr",−0.4456
same,logFC,"[5]; experiment wp133, 4 hr",−0.5963
same,logFC BUB1 (O43683),"[5]; Experiment wp133, 1 hr",−0.4907
same,logFC BUB1 (O43683),"[5]; Experiment wp133, 2 hr",−0.4456
same,logFC BUB1 (O43683),"[5]; Experiment wp133, 4 hr",−0.5963
same,logFC,"[6]; experiment wp016, 1 uM",−0.7032
same,logFC STK17A,"[6]; experiment wp016, 1 uM",−0.7032
same,logFC,[6]; experiment wp103,−0.6201
same,logFC STK17A,[6]; experiment wp103,−0.6201
same,logFC,[6]; experiment wp107,−0.6984
same,logFC STK17A,[6]; experiment wp107,−0.6984
same,logFC,"[6]; experiment wp133, 4 hr",−0.5458
same,logFC STK17A,"[6]; experiment wp133, 4 hr",−0.5458
same,logFC,[6]; experiment wp172,−0.3963
same,logFC STK17A,[6]; experiment wp172,−0.3963
same,logFC CDK12,[7]; [10],−1.134
same,logFC CDK12,"[7]; Accession Q9NYV4-1, experiment wp016, 1 uM",−0.9325
same,logFC CDK12,"[7]; Accession Q9NYV4-1, experiment wp172",−1.234
same,logFC CDK12,[7]; [11],−1.134
same,logFC CDK12,"[7]; CDK12 (Q9NYV4-1), experiment wp016, 1 uM",−0.9325
same,logFC CDK12,"[7]; CDK12 (Q9NYV4-1), experiment wp172",−1.234
same,logFC CDK13,[8]; experiment wp016,−0.6046
same,logFC CDK13,"[8]; experiment wp016, 1 uM",−0.5749
same,logFC CDK13,[8]; experiment wp103,−0.4833
same,logFC CDK13,[8]; experiment wp105,−0.4649
same,logFC CDK13,[8]; experiment wp107,−0.7112
same,logFC CDK13,"[8]; experiment wp133, 4 hr",−0.5562
same,logFC CDK13,"[8]; experiment wp160, 4 hr",−0.4805
same,logFC CDK13,[8]; experiment wp172,−0.859
same,logFC,"[8]; experiment wp016, 1 uM",−0.5749
same,logFC CDK13 (Q14004-1),[8]; Experiment wp172,−0.859
same,logFC CDK13 (Q14004-1),[8]; experiment wp016,−0.6046
same,logFC CDK13 (Q14004-1),[8]; experiment wp103,−0.4833
same,logFC CDK13 (Q14004-1),[8]; experiment wp105,−0.4649
same,logFC CDK13 (Q14004-1),[8]; experiment wp107,−0.7112
same,logFC CDK13 (Q14004-1),"[8]; experiment wp133, 4 hr",−0.5562
same,logFC CDK13 (Q14004-1),"[8]; experiment wp160, 4 hr",−0.4805
CC(C)S(=O)(=O)c1ccccc1Nc1nc(Nc2ccc(N3CCN(CCOCCNC(=O)CNc4ccc5c(c4)C(=O)N(C4CCC(=O)NC4=O)C5=O)CC3)cc2)ncc1Cl (centres unmarked) [SK.3.93],logFC,[2],−3.269
same,logFC PTK2B,[2]; experiment wp016,−3.269
same,logFC,[3],−0.8057
same,logFC CDK7,[3]; experiment wp016,−0.8057
same,logFC of CDK17,[4]; experiment wp016,−0.7103
same,logFC CDK17 (Q00537),[4]; experiment wp016,−0.7103
same,logFC CDK12,[7]; [10],−0.9555
same,logFC CDK12,[7]; [11],−0.9555
same,logFC CDK13,[8]; experiment wp016,−0.5636
same,logFC CDK13 (Q14004-1),[8]; experiment wp016,−0.5636
CC(C)S(=O)(=O)c1ccccc1Nc1nc(Nc2ccc(N3CCN(CCOCCOCCNC(=O)CNc4cccc5c4C(=O)N(C4CCC(=O)NC4=O)C5=O)CC3)cc2)ncc1Cl (centres unmarked) [TL12.186],logFC,[2],−3.722
same,logFC PTK2B,[2]; experiment wp016,−3.722
same,logFC,[3],−0.7603 and −0.6447 and −0.7438
same,logFC CDK7,[3]; experiment wp016,−0.7603
same,logFC CDK7,[3]; experiment wp131,−0.6447
same,logFC CDK7,[3]; experiment wp137,−0.7438
same,logFC of CDK17,[4]; experiment wp016,−0.84
same,logFC of CDK17,[4]; experiment wp131,−0.6165
same,logFC CDK17 (Q00537),[4]; experiment wp016,−0.84
same,logFC CDK17 (Q00537),[4]; experiment wp131,−0.6165
same,logFC,[5]; experiment wp131,−0.4983
same,logFC,[5]; experiment wp137,−0.4422
same,logFC BUB1 (O43683),[5]; Experiment wp131,−0.4983
same,logFC BUB1 (O43683),[5]; Experiment wp137,−0.4422
same,logFC,[6]; experiment wp137,−0.5054
same,logFC STK17A,[6]; experiment wp137,−0.5054
same,logFC CDK12,[7]; [10],−0.9185
same,logFC CDK12,"[7]; Accession Q9NYV4-1, experiment wp131",−1.402
same,logFC CDK12,[7]; [11],−0.9185
same,logFC CDK12,"[7]; CDK12 (Q9NYV4-1), experiment wp131",−1.402
same,logFC PDK2,[9]; Accession Q15119-1,−0.5022
same,logFC PDK2 (Q15119-1),[9],−0.5022
same,logFC CDK13,[8]; experiment wp016,−0.5885
same,logFC CDK13,[8]; experiment wp131,−0.7903
same,logFC CDK13,[8]; experiment wp137,−0.7062
same,logFC,[8]; experiment wp016,−0.5885
same,logFC CDK13 (Q14004-1),[8]; experiment wp131,−0.7903
same,logFC CDK13 (Q14004-1),[8]; experiment wp137,−0.7062
